Results taken from US20090022687A1, “Novel Pharmaceuticals That Use Anti-HLA Antibodies” (Chugai Seiyaku Kabushiki Kaisha, priority 2005, published 2009).

Experiments:
[1] = tested on: myeloma cell line RPMI 8226; assay: Effects of signal transduction inhibitors on cell injury by 2D7-DB; settings: 60 minutes of pretreatment, 2D7-DB 1 μg/mL
Protocol: This time, the present inventors further examined the antitumor mechanism of 2D7-DB. First, 60 minutes of pretreatment was performed using various signal transduction inhibitors, and their effects on cell injury of the myeloma cell line RPMI 8226 after 2D7-DB (1 μg/mL) addition were examined (FIG. 6A).

[2] = tested on: myeloma cell line ARH-77; assay: Actin staining, localization of 2D7-DB and actin; type: cell-based, human; settings: ARH-77, 30 minutes of pretreatment with inhibitor 0,1 μM
Protocol: Furthermore, actin staining of the cells was performed to examine the localization of 2D7-DB (green) and actin (red) (FIG. 6B). […] On the other hand, actin aggregation due to 2D7-DB was not observed in the bone marrow stromal cell line KM102 expressing HLA-A. Thus, actin aggregation effect and cytotoxic activity by 2D7-DB were considered specific to myeloma cells and lymphoid cells, and while 2D7-DB is useful for myeloma and autoimmune diseases, it was considered to have little effect on normal tissues.

[3] = tested on: HLA-A expression in IM-9 cells; assay: Effects of IFNs on HLA-A expression (flow cytometry using 2D7); type: cell-based, human; settings: IFN 100 U/mL for 48 hours
Protocol: IM-9 cells were treated with IFN-α (100 U/mL) or IFN-γ (100 U/mL) for 48 hours. Cell surface expression of HLA-A was analyzed by flow cytometry using 2D7. The staining properties of IFN-treated cells are shown by tick lines, and those of untreated cells are shown by solid lines. Negative control staining properties are shown by dotted lines. (B) A graph indicating the enhancement of 2D7-DB-mediated cytotoxicity by IFN is shown. IM-9 cells were treated with IFN-α (100 U/mL) or IFN-γ (100 U/mL) for 48 hours, and then cultured with 2D7-DB (0.1 or 1 μg/mL) for 24 hours. Cell viabilities were determined by WST-8 assays.
Since cell surface expression of HLA class I is enhanced by IFN stimulation, effects of IFNs on HLA-A expression and 2D7-DB-mediated cytotoxicity were examined using IM-9 cells. After treating IM-9 cells with IFN-α (100 U/mL, OIF 2,500,000 IU, Otsuka Pharmaceutical) or IFN-γ (100 U/mL, Ogamma 100, Otsuka Pharmaceutical) for 48 hours, flow cytometry was performed. […]
Cell surface expression analysis of HLA class I by flow cytometry was performed as follows using FITC-labeled 2D7 mAb or FITC-labeled anti-HLA-ABC common region mAb (Chemicon, San Diego, Calif.). […] Next, the cells were washed twice with PBS, and analyzed using an EPICS XL flow cytometer (Beckman Coulter, Japan). […] HLA class I expression levels were evaluated as GeoMFI using the CellQuest software (BID Biosciences).

Molecule: C/C1=C/C(=O)O[C@@H]2C[C@@H](CC[C@H](C)/C=C\C=C\CC1)O[C@@](O)([C@@H]1CSC(=O)N1)C2 [latrunculin A]
- effect on cytotoxicity of 2D7-DB ([1]; inhibitor 0.1 μM): almost completely suppressed
- actin aggregation after 2D7-DB addition [2]: aggregation was not observed

Molecule: C=C1[C@@H](C)[C@H]2[C@H](Cc3ccccc3)NC(=O)[C@]23[C@H](OC(C)=O)/C=C/[C@@](C)(O)C(=O)[C@@H](C)C/C=C/[C@H]3[C@@H]1O [cytochalasin D]
- effect on cytotoxicity of 2D7-DB ([1]; inhibitor 1 μM): almost completely suppressed

Molecule: COC[C@H]1OC(=O)c2coc3c2[C@@]1(C)C1=C(C3=O)[C@@H]2CCC(=O)[C@@]2(C)C[C@H]1OC(C)=O [Wortmannin]
- effect on cytotoxicity of 2D7-DB ([1]; inhibitor 10 μM): did not show effects

B1: IFN-γ: interferon γ, Ogamma 100, Otsuka Pharmaceutical; amino acid sequence SEQ ID NO: 3 (protein, listed as Homo sapiens)
chain: MKYTSYILAFQLCIVLGSLGCYCQDPYVKEAENLKKYFNAGHSDVADNGTLFLGILKNWKEESDRKIMQSQIVSFYFKLFKNFKDDQSIQKSVETIKEDMNVKFFNSNKKKRDDFEKLTNYSVTDLNVQRKAIHELIQVMAELSPAAKTGKRKRSQMLFRGRRASQ
- HLA-A expression [3]: up-regulated

B2: IFN-α: interferon α, OIF 2,500,000 IU, Otsuka Pharmaceutical; amino acid sequence SEQ ID NO: 1 (protein, listed as Homo sapiens)
chain: MASPFALLMVLVVLSCKSSCSLGCDLPETHSLDNRRTLMLLAQMSRISPSSCLMDRHDFGFPQEEFDGNQFQKAPAISVLHELIQQIFNLFTTKDSSAAWDEDLLDKFCTELYQQLNDLEACVMQEERVGETPLMNADSILAVKKYFRRITLYLTEKKYSPCAWEVVRAEIMRSLSLSTNLQERLRRKE
- HLA-A expression [3]: up-regulated
